Test results from patent US20120100186A1, “NANOPARTICULATE-BASED CONTRACEPTIVE/ANTI-HIV COMPOSITION AND METHODS” (Washington University, priority 2010, published 2012).

Legend:
[1] = test system: Immortalized vaginal epithelial cells (VK2/E6E7); assay: Vaginal epithelium toxicity (MTT viability); format: cell-based; settings: concentrations of melittin as low as 1 μM, 12 hours at 37° C., FIG. 1A
Protocol: For toxicity studies, 7500 cells were added to each well of a 96-well plate and allowed to attach for 24 hours. Melittin or melittin coated PFC-NP were then added and incubated with the cells for 12 hours at 37° C. with shaking at 500 rpm. Cells were washed once with media and incubated with MTT reagent for 4 hours. The colored product was solubilized in DMSO and absorbance at 570 nm was measured using a plate reader.
In more detail, cells were detached from a T75 flask by rinsing with 2-3 mL of trypsin, followed by adding 5 mL trypsin and incubating at 37° C. for 15 minutes. Five mL DMEM-FBS is then added to stop the trypsin, and the mixture is centrifuged at 900 rpm for 5 minutes, supernatant is removed and the cells are resuspended in 5 mL of Keratinocyte-Serum Free Media (Invitrogen™). The cells are diluted to approximately 75,000 cells/mL, and 100 μL of the cell suspension is added to each well of a 96-well plate and incubated for 24 hours at 37° C. The media are replaced with 100 μL of media containing the melittin or melittin-loaded nanoparticles at various concentrations and incubated for 12 hours at 37° C. with shaking at 500 rpm. […]
To each well containing 100 μL of media, 20 μL of MTT reagent (5 mg/mL MTT in PBS) were added, and incubated for 4 hours at 37° C. […] Absorbance is read at 570 nm using a plate reader.

sperm = assay: Sperm motility and viability (computer assisted sperm analysis); format: cell-based, Human; settings: 30 minutes at 37° C., 10 million sperm per mL; FIGS. 5A-5D
Protocol: Human semen samples were obtained from the Washington University in vitro fertilization laboratory and stored at 37° C. until use. Semen was diluted in EmbryoMax® Human Tubal Fluid (HTF) (Millipore) and free melittin or melittin-coupled nanoparticles in HTF was added to achieve a final sperm concentration of 10 million sperm per mL. (For nanoparticles, samples were pipetted up and down 3 times every 10 minutes to keep the nanoparticles suspended.) Samples were incubated in 96-well plates for 30 minutes at 37° C. with shaking at 150 rpm to prevent sperm from settling. Afterwards, Viadent® stain (Hoechst 33258, Hamilton Thorne) was added to achieve a final stain concentration of 10 μg/mL and samples were incubated for an additional 5 minutes. Sperm motility and viability were determined using an IVOS® Computer Assisted Sperm Analyzer (Hamilton Thorne).

CC[C@H](C)[C@H](NC(=O)CN)C(=O)NCC(=O)N[C@@H](C)C(=O)N[C@H](C(=O)N[C@@H](CC(C)C)C(=O)N[C@@H](CCCCN)C(=O)N[C@H](C(=O)N[C@@H](CC(C)C)C(=O)N[C@H](C(=O)N[C@H](C(=O)NCC(=O)N[C@@H](CC(C)C)C(=O)N1CCC[C@H]1C(=O)N[C@@H](C)C(=O)N[C@@H](CC(C)C)C(=O)N[C@H](C(=O)N[C@@H](CO)C(=O)N[C@@H](Cc1c[nH]c2ccccc12)C(=O)N[C@H](C(=O)N[C@@H](CCCCN)C(=O)N[C@@H](CCCNC(=N)N)C(=O)N[C@@H](CCCCN)C(=O)N[C@@H](CCCNC(=N)N)C(=O)N[C@@H](CCC(N)=O)C(=O)N[C@@H](CCC(N)=O)C(N)=O)[C@@H](C)CC)[C@@H](C)CC)[C@@H](C)O)[C@@H](C)O)C(C)C)C(C)C [melittin]
viability of vaginal epithelium cells [1]: dramatically decrease
sperm motility (sperm): impeded
sperm viability (sperm): impeded
